Experimental data published in patent publication US8993542B2, “Methods of treating viral infections” (priority 2008, dated 2015).

Tested on: HIV-1IIIB
Test: Two-drug combination antiviral assay in CEM cells (CPE), MacSynergy II
Format: cell-based
Details: for Antagonism Volume, Result 1 / Antagonism Volume, Result 2 / Antagonism Volume, Result 3 / Mean Antagonism Volume (n = 3) / Mean Synergy Volume (n = 3) / Synergy Volume, Result 1 / Synergy Volume, Result 2 / Synergy Volume, Result 3: in combination with CMX157, CEM-SS cells, 95% confidence; for Interpretation of Antiviral Results (MacSynergy): two-drug combination (with CMX157; control d4T/RBV), CEM-SS cells

| Molecule | Antagonism Volume, Result 1 | Antagonism Volume, Result 2 | Antagonism Volume, Result 3 | Mean Antagonism Volume (n = 3) | Mean Synergy Volume (n = 3) | Synergy Volume, Result 1 | Synergy Volume, Result 2 | Synergy Volume, Result 3 | Interpretation of Antiviral Results (MacSynergy) |
| --- | --- | --- | --- | --- | --- | --- | --- | --- | --- |
| enfuvirtide | 0/0 nM^2 %, μM^2 % or nMμM % | 0 nM^2 %, μM^2 % or nMμM % | 0/0 nM^2 %, μM^2 % or nMμM % | 0 nM^2 %, μM^2 % or nMμM % | 1.02 nM^2 %, μM^2 % or nMμM % | 0/0 nM^2 %, μM^2 % or nMμM % | 3.05 nM^2 %, μM^2 % or nMμM % | 0/0 nM^2 %, μM^2 % or nMμM % |  |
| CC(C)CN(C[C@@H](O)[C@H](Cc1ccccc1)NC(=O)O[C@H]1CO[C@H]2OCC[C@H]21)S(=O)(=O)c1ccc(N)cc1 [Darunavir (DRV), darunavir] | 0 nM^2 %, μM^2 % or nMμM % | −2.31 nM^2 %, μM^2 % or nMμM % | 0 nM^2 %, μM^2 % or nMμM % | −0.54 nM^2 %, μM^2 % or nMμM % | 43.2 nM^2 %, μM^2 % or nMμM % | 109 nM^2 %, μM^2 % or nMμM % | 11.5 nM^2 %, μM^2 % or nMμM % | 9.48 nM^2 %, μM^2 % or nMμM % |  |
| Cc1cccc(C)c1OCC(=O)N[C@@H](Cc1ccccc1)[C@@H](O)C[C@H](Cc1ccccc1)NC(=O)[C@H](C(C)C)N1CCCNC1=O [Lopinavir (LPV), lopinavir] | −0.31 nM^2 %, μM^2 % or nMμM % | 0 nM^2 %, μM^2 % or nMμM % | −0.12 nM^2 %, μM^2 % or nMμM % | −0.14 nM^2 %, μM^2 % or nMμM % | 55.6 nM^2 %, μM^2 % or nMμM % | 78.8 nM^2 %, μM^2 % or nMμM % | 28.3 nM^2 %, μM^2 % or nMμM % | 59.8 nM^2 %, μM^2 % or nMμM % | slightly synergistic |
| CC(C)c1nc(CN(C)C(=O)N[C@H](C(=O)N[C@@H](Cc2ccccc2)C[C@H](O)[C@H](Cc2ccccc2)NC(=O)OCc2cncs2)C(C)C)cs1 [Ritonavir (RTV), ritonavir] | 0 nM^2 %, μM^2 % or nMμM % | 0 nM^2 %, μM^2 % or nMμM % | −2.61 nM^2 %, μM^2 % or nMμM % | 0 nM^2 %, μM^2 % or nMμM % | 66.4 nM^2 %, μM^2 % or nMμM % | 47.5 nM^2 %, μM^2 % or nMμM % | 38.0 nM^2 %, μM^2 % or nMμM % | 116 nM^2 %, μM^2 % or nMμM % | slightly synergistic |
| Cc1cc(C#N)cc(C)c1Oc1nc(Nc2ccc(C#N)cc2)nc(N)c1Br [Etravirine (ETV), etravirine] | −0.75 nM^2 %, μM^2 % or nMμM % | 0 nM^2 %, μM^2 % or nMμM % | −0.87 nM^2 %, μM^2 % or nMμM % | −0.29 nM^2 %, μM^2 % or nMμM % | 69.0 nM^2 %, μM^2 % or nMμM % | 34.9 nM^2 %, μM^2 % or nMμM % | 106 nM^2 %, μM^2 % or nMμM % | 67.4 nM^2 %, μM^2 % or nMμM % | slightly synergistic |
